Experimental data taken from patent US20150064109A1, “Quantified differentiation and identification of changes in tissue by enhancing differences in blood flow and metabolic activity” (priority 2013, published 2015).

How the values were obtained:
mitochondria = details: energy dependent manner; cited from earlier work
breast tissue [1] = assay: Study 1: sestamibi breast imaging, maximal count activity (MCA) with Miraluma, SDD and HDD (B.E.S.T.) in ten women; assay type: in vivo, human; details: for MCA counts, Cancer: breast cancer tissue; for MCA counts, Inflamatory States: inflammatory breast tissue; for tissue differentiation: outcome in words, referring to FIG. 3 and Table 1
Procedure: Two sestamibi imaging studies were conducted. […] The results were also compared with biopsy data. All 10 women in the study had either an abnormality on mammography or a detectable lump on physical examination.
Subjects undergoing breast imaging arrived in the fasting state 15-30 minutes prior to the study. […] The IV was placed in the contralateral arm if there is a specific question regarding a specific breast. Sestamibi was administered intravenously four minutes into the study followed by a 10-20 cc normal saline flush to assure delivery of the isotope into the venous system, with imaging of the breast beginning ten minutes into the study. A SPECT camera was positioned in a stationary (planar) position for each of the images.
Breast imaging began with the patient placed in a prone position on top of a 6-inch foam pad designed to enhance the comfort of the patient while improving breast imaging. Each side of the 6-inch pad had breast inserts held in place by hook and loop-type adhesive strips, which were removed allowing each breast to be positioned through the openings in a dependent manner without breast compression. Planar breast imaging began with the BrQL breast (lateral view of breast in question or the right breast if neither breast was specifically suspected of having an abnormality), then the BrCL breast (lateral view of the breast contralateral to BrQL). Patients were then placed on their back for the anterior (BrAS) image of both breasts. Any areas of special concern, PO BrQ1 (posterior oblique view of 1st breast noted to have abnormal activity on initial views) and PO BrQ2 (posterior oblique view of the other breast if its activity is abnormal) were then imaged.
All images were acquired while the patient was prone, except for the anterior (BrAS) image, which was obtained while the patient was supine.
Breast image acquisition and reconstruction was performed using a Siemens orbiter Single Photon Emission Computed Tomography (SPECT) camera with 75 photomultiplier tubes (PMTs) and a 128 by 128 matrix, available from Siemens Medical Solutions, Malvern, Pa. The images were acquired with the camera head in a stationary (planar) position. The camera, computer and software providing quantification of maximal count activity (MCA) were supplied by NC Systems of Boulder, Colo. A low-energy high-resolution (LEHR) collimator was used providing a resolution of 3.4 mm.
(§1) Subjects arrive in a fasting state 15-30 minutes prior to the study. An 18-20 gauge intravenous catheter was placed either in the right antebrachium, or in the left antebrachium. The IV was placed in the contralateral arm if a specific breast was the breast in question. […] The catheter was flushed with 10-20 cc of normal saline immediately after the HDD had been given to assure introduction of all of the HDD into the venous system. […] Anterior images were obtained with the patient in a supine position.
(§2) An example of the blue-green format is shown in FIG. 2a, juxtaposed with resting images.
Following the image reconstruction and presentation of each breast image, the region of greatest maximal activity (MCA) was determined and “quantified.” MCA is a measure of detected radiation (gamma) emission acquired by the SPECT camera during the imaging process and reflects the amount of isotope present at any given time within the tissue of interest. See Fleming R M, Dooley W C, Boyd L B, Kubovy C, “Breast Enhanced Scintigraphy Testing (B.E.S.T.)—Increased accuracy in detecting breast cancer accomplished by combining breast and cardiac imaging,” 48th Annual Scientific Session of the Society of Nuclear Medicine, Toronto, Ontario, Canada, 26 Jun. 2001, the disclosure of which is incorporated herein by this reference. […] All readings and determination of MCA were determined for each breast prior to any knowledge of clinical, mammographic or pathologic information, which could in any way bias the results.

breast tissue [2] = assay: Study 2: B.E.S.T. (HDD-enhanced sestamibi) breast imaging, MCA compared with histopathology in 195 individuals; assay type: in vivo, human; details: mean ± SD; for MCA quantitative counts, Cancer: breast cancer (n=15); for MCA quantitative counts, Atypia (Pre-cancerous): cellular atypia (15 individuals); for MCA quantitative counts, Inflammatory States: inflammatory changes (n=77); for MCA quantitative counts, Normal: normal breast tissue (n=88)
From the text: Tissue samples were obtained either through ductoscopy, fine needle aspiration or open biopsy and were interpreted by pathologists without knowledge of the sestamibi image results. Results were interpreted as being normal, inflammatory (including trauma, injury, infection, fibrocystic disease, radiation exposure and subsequent injury), atypia (with increasing order of cellular change progressing from hyperplasia to metaplasia/atypia to ductal carcinoma in situ) and cancer.
In a second study, one hundred and ninety five (195) (4 men, 191 women) individuals were studied using the enhanced (HDD) imaging approach. The study included four men having detectable breast lumps and 191 women, including 58 seeking additional information regarding breast disease concerns, and 133 with breast lumps and/or abnormal mammograms. The results of this study were also compared with biopsy data.
as §1, §2
Following the image reconstruction and presentation of each breast image, the region of greatest maximal activity (MCA) was determined and “quantified.” MCA is a measure of detected radiation (gamma) emission acquired by the SPECT camera during the imaging process and reflects the amount of isotope present at any given time within the tissue of interest. See Fleming R M, Dooley W C, Boyd L B, Kubovy C, “Breast Enhanced Scintigraphy Testing (B.E.S.T.)—Increased accuracy in detecting breast cancer accomplished by combining breast and cardiac imaging,” 48th Annual Scientific Session of the Society of Nuclear Medicine, Toronto, Ontario, Canada, 26 Jun. 2001, the disclosure of which is incorporated herein by this reference. […] All readings and determination of MCA were determined for each breast prior to any knowledge of clinical, mammographic or pathologic information, which could in any way bias the results. These procedures were performed at a recognized Center of Excellence for Nuclear Procedures under the direct supervision of a physician Boarded in Nuclear Imaging.
The outcomes of histopathologic specimens were compared with the MCA derived from sestamibi imaging. Descriptive statistical analysis of the MCAs were determined including mean±standard deviations and confidence intervals (CI) for the mean. Group comparisons were made using two-tailed t-tests to determine statistical differences defined as p-values of ≦0.05. Graphic representation of the means is shown for comparison purposes as well as raw data comparison for the histopathologic categories.

[99Tc+].[C-]#[N+]CC(C)(C)OC.[C-]#[N+]CC(C)(C)OC.[C-]#[N+]CC(C)(C)OC.[C-]#[N+]CC(C)(C)OC.[C-]#[N+]CC(C)(C)OC.[C-]#[N+]CC(C)(C)OC [sestamibi, Technetium-99m hexakis 2-methoxyisobutylisonitrile]
sestamibi taken up by mitochondria (mitochondria): over 90%

OCCN(CCO)c1nc(N2CCCCC2)c2nc(N(CCO)CCO)nc(N3CCCCC3)c2n1 [SDD, dipyridamole]
MCA counts, Cancer (breast tissue [1]; mean ± SD, Study 1): 285.8 ± 17.0 counts | MCA counts, Inflamatory States (breast tissue [1]; mean ± SD, Study 1): 183.5 ± 19.0 counts | tissue differentiation (breast tissue [1]): useless in tissue differentiation

OCCN(CCO)c1nc(N2CCCCC2)c2nc(N(CCO)CCO)nc(N3CCCCC3)c2n1 [HDD/B.E.S.T. ©, dipyridamole]
MCA quantitative counts, Cancer (breast tissue [2]; listed as B.E.S.T. ©): 445.3 ± 83.3 counts | MCA quantitative counts, Cancer (breast tissue [2]; listed as B.E.S.T.©): 445.3±83.3 counts | MCA quantitative counts, Atypia (Pre-cancerous) (breast tissue [2]; listed as B.E.S.T. ©): 307.7 ± 29.3 counts | MCA quantitative counts, Atypia (Pre-cancerous) (breast tissue [2]; listed as B.E.S.T.©): 307.7±29.3 counts | MCA quantitative counts, Inflammatory States (breast tissue [2]; listed as B.E.S.T. ©): 218.0 ± 40.3 counts | MCA quantitative counts, Inflammatory States (breast tissue [2]; listed as B.E.S.T.©): 218.0±40.3 counts | MCA quantitative counts, Normal (breast tissue [2]; listed as B.E.S.T. ©): 145 ± 29.1 counts | MCA quantitative counts, Normal (breast tissue [2]; listed as B.E.S.T.©): 145.0±29.1 counts | MCA counts, Cancer (breast tissue [1]; mean ± SD, Study 1): 442.0 ± 5.7 counts | MCA counts, Cancer (breast tissue [1]; mean ± SD, Study 1, listed as B.E.S.T.©): 442.0±5.7 counts | MCA counts, Inflamatory States (breast tissue [1]; mean ± SD, Study 1): 228.8 ± 24.0 counts | MCA counts, Normal (breast tissue [1]; normal breast tissue, mean ± SD, sestamibi 25-30 mCi iv, Study 1): 125.5 ± 31.5 counts | tissue differentiation (breast tissue [1]; listed as HDD): statistically significant at differentiating tissue types
